Values of other authors, collected in article PMC12181400, “Leveraging viral genome sequences and machine learning models for identification of potentially selective antiviral agents” (Communications Chemistry, 2025).
Structures can show the parent of a compound that is named as a salt. Where two headings read alike, the source gives them in different places.

Assays:
Settings in all cases: cited from earlier work
[1] = system: cell viability (tox21-ap1-agonist-p1)
[2] = system: cell viability (tox21-car-antagonist-p1)
[3] = system: cell viability (tox21-ar-mda-kb2-luc-antagonist-p2)
[4] = system: cell viability (tox21-ar-mda-kb2-luc-agonist-p3)
[5] = system: cell viability (tox21-are-bla-p1)
[6] = system: cell viability (tox21-car-agonist-p1)
[7] = curve rank −9 to 9, 0 = inactive, ref NCATS Tox21 public data browser

| Compound | tox21-ap1-agonist-p1-viability (curve rank) [1] | tox21-car-antagonist-p1-viability (curve rank) [2] | tox21-ar-mda-kb2-luc-antagonist-p2-viability (curve rank) [3] | tox21-ar-mda-kb2-luc-agonist-p3-viability (curve rank) [4] | tox21-are-bla-p1-viability (curve rank) [5] | tox21-car-agonist-p1-viability (curve rank) [6] | tox21-ap1-agonist-p1-viability (curve rank) [1, 7] | tox21-car-antagonist-p1-viability (curve rank) [2, 7] | tox21-ar-mda-kb2-luc-antagonist-p2-viability (curve rank) [3, 7] | tox21-ar-mda-kb2-luc-agonist-p3-viability (curve rank) [4, 7] | tox21-are-bla-p1-viability (curve rank) [5, 7] | tox21-car-agonist-p1-viability (curve rank) [6, 7] |
| --- | --- | --- | --- | --- | --- | --- | --- | --- | --- | --- | --- | --- |
| CN(C)CCn1nnnc1SCC1=C(C(=O)O)N2C(=O)[C@@H](NC(=O)Cc3csc(N)n3)[C@H]2SC1 [Cefotiam hydrochloride] | 0 | 0 | 0 | 0 | 0 | 0 | – | – | – | – | – | – |
| CN1C(=O)CCS(=O)(=O)C1c1ccc(Cl)cc1 (stereo not drawn) [Chlormezanone] | – | – | – | – | – | – | 0 | 0 | 0 | 0 | 0 | 0 |
| O=C(O)c1cc(=O)c2ccccc2o1 [Chromocarb] | – | – | – | – | – | – | 0 | 0 | 0 | 0 | 0 | 0 |
| CC(C)(Oc1ccc(Cl)cc1)C(=O)O [Clofibric acid] | 0 | 0 | 0 | 0 | 0 | 0 | – | – | – | – | – | – |
| Cc1ncsc1CCCl [Clomethiazole] | – | – | – | – | – | – | 0 | 0 | 0 | 0 | 0 | 0 |
| Clc1cccc(Cl)c1N=C1NCCN1 [Clonidine] | 0 | 0 | 0 | 0 | 0 | 0 | – | – | – | – | – | – |
| COC(=O)[C@H](c1ccccc1Cl)N1CCc2sccc2C1 [Clopidogrel bisulfate] | 0 | 0 | 0 | 0 | 0 | 0 | – | – | – | – | – | – |
| Cc1nc(C)c(Cl)c(O)c1Cl [Clopidol] | – | – | – | – | – | – | -0.67 | 0 | 0 | 0 | 0 | 0 |
| CN1C(=O)CC[C@H]1c1cccnc1 [Cotinine] | 0 | 0 | 0 | 0 | 0 | 0 | – | – | – | – | – | – |
| CN(C)CCOC(=O)C(c1ccccc1)C1(O)CCCC1 (stereo not drawn) [Cyclopentolate hydrochloride] | – | – | – | – | – | – | 0 | 0 | 0 | 0 | 0 | 0 |
| NS(=O)(=O)c1cc2c(cc1Cl)NC(C1CC3C=CC1C3)NS2(=O)=O (stereo not drawn) [Cyclothiazide] | – | – | – | – | – | – | 0 | 0 | 0 | 0 | 0 | 0 |
| CCOP(=S)(OCC)Oc1cc(C)nc(C(C)C)n1 [Diazinon] | – | – | – | – | – | – | 0 | 0 | 0 | 0 | 0 | 0 |
| COc1ccc(-c2cc(=O)c3c(O)cc(O[C@@H]4O[C@H](CO[C@@H]5O[C@@H](C)[C@H](O)[C@@H](O)[C@H]5O)[C@@H](O)[C@H](O)[C@H]4O)cc3o2)cc1O [Diosmin] | 0 | 0 | 0 | 0 | 0 | 0 | – | – | – | – | – | – |
| CC(C)N(CCC(C(N)=O)(c1ccccc1)c1ccccn1)C(C)C (stereo not drawn) [Disopyramide] | 0 | 0 | 0 | 0 | 0 | 0 | – | – | – | – | – | – |
| OCC(O)CN1CCN(c2ccccc2)CC1 (stereo not drawn) [Dropropizine] | – | – | – | – | – | – | 0 | 0 | 0 | 0 | 0 | 0 |
| CCC1(C2=NCCN2)Cc2ccccc2O1 (stereo not drawn) [Efaroxan] | – | – | – | – | – | – | 0 | 0 | 0 | 0 | 0 | 0 |
| CCOC(=O)[C@H](CCc1ccccc1)N[C@@H](C)C(=O)N1CCC[C@H]1C(=O)O [Enalapril maleate] | 0 | 0 | 0 | 0 | 0 | 0 | – | – | – | – | – | – |
| CSc1ccc(C(=O)c2[nH]c(=O)[nH]c2C)cc1 [Enoximone] | 0 | 0 | 0 | 0 | 0 | 0 | – | – | – | – | – | – |
| O=C(Cn1ccnc1[N+](=O)[O-])NCCO [Etandazole] | 0 | 0 | 0 | 0 | 0 | 0 | – | – | – | – | – | – |
| CCOC(=O)c1cncn1[C@H](C)c1ccccc1 [Etomidate] | – | – | – | – | – | – | 0 | 0 | 0 | 0 | 0 | 0 |
| NC(=O)OCC(COC(N)=O)c1ccccc1 [Felbamate] | – | – | – | – | – | – | 0 | 0 | 0 | 0 | 0 | 0 |
| NC(Cc1ccc(Cl)cc1)C(=O)O (stereo not drawn) [Fenclonine] | 0 | 0 | 0 | 0 | 0 | 0 | – | – | – | – | – | – |
| O=C1NCC2(CCN(CCc3ccccc3)CC2)O1 [Fenspiride hydrochloride] | – | – | – | – | – | – | 0 | 0 | 0 | 0 | 0 | 0 |
| COP(=S)(OC)Oc1ccc(SC)c(C)c1 [Fenthion] | – | – | – | – | – | – | 0 | 0 | 0 | 0 | 0 | 0 |
| CCOC(=O)c1ncn2c1CN(C)C(=O)c1cc(F)ccc1-2 [Flumazenil] | 0 | 0 | 0 | 0 | 0 | 0 | – | – | – | – | – | – |
| NP(N)(=O)NC(=O)c1ccc(F)cc1 [Flurofamide] | 0 | 0 | 0 | 0 | 0 | 0 | – | – | – | – | – | – |
| CCC(=O)O[C@]1(C(=O)SCF)[C@H](C)C[C@H]2[C@@H]3C[C@H](F)C4=CC(=O)C=C[C@]4(C)[C@@]3(F)[C@@H](O)C[C@@]21C [Fluticasone propionate] | 0 | 0 | 0 | 0 | 0 | 0.67 | – | – | – | – | – | – |
| Nc1nc2ncc(CNc3ccc(C(=O)N[C@@H](CCC(=O)O)C(=O)O)cc3)nc2c(=O)[nH]1 [Folic acid] | 0 | 0 | 0 | 0 | 0 | 0 | – | – | – | – | – | – |
